# Test results as given in patent US20250326732A1 (Pretzel Therapeutics, Inc., priority 2021, published 2025).
# Target: POLRMT (Homo sapiens (Human), UniProt O00411)
# Assay: homogeneous TR-FRET assay of mitochondrial transcription (inhibition of POLRMT)
# Type: biochemical
# Conditions: 7.5 nM POLRMT, 15 nM TFB2M, 30 nM TFAM, 0.5 nM DNA template, 500 μM NTPs, 37° C. for 60 minutes
# Outline: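 POLRMT transcription from linearized pUC-LSP DNA template; RNA product detected by hybridization of ATTO647 acceptor (1 nM) and biotinylated donor (3 nM) probes plus Europium-streptavidin. Reaction stopped with EDTA/700 mM NaCl buffer, pH 7.5.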
# Sequence of POLRMT (O00411 42-1230): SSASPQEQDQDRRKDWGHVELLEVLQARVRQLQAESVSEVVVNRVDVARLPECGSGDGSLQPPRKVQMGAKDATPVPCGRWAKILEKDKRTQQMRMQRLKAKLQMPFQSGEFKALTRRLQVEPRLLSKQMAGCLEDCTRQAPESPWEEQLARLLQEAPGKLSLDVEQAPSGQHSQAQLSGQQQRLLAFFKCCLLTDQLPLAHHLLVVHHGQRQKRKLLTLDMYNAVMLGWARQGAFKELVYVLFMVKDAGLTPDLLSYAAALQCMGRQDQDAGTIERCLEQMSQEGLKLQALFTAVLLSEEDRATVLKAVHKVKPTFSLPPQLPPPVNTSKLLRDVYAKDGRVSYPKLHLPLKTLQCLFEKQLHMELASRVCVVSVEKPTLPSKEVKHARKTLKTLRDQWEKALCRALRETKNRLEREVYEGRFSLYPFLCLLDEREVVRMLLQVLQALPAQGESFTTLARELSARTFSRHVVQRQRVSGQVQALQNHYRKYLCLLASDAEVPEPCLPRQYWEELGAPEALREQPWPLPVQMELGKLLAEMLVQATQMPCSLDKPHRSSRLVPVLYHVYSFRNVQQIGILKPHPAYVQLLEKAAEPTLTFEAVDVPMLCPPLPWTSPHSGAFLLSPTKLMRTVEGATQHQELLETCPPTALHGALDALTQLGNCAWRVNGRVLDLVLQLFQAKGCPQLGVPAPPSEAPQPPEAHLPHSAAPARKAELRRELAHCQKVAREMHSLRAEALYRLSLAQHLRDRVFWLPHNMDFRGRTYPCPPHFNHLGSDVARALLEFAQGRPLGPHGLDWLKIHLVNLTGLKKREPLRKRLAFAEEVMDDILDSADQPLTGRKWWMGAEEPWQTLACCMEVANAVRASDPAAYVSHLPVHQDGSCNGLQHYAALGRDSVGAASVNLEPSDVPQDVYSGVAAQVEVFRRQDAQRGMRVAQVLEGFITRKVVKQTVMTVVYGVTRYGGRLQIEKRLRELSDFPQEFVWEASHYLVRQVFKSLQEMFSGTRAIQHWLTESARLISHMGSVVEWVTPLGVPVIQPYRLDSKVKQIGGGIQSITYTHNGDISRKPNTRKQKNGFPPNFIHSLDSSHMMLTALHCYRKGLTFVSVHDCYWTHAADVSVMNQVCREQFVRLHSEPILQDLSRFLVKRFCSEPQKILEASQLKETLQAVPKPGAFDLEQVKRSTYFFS
row,IC50,SMILES
1,100 nM,"Cc1ccccc1-c1cc(=O)oc2cc(CN(C)C(=O)C3CCC(C(=O)O)CC3)ccc12 (stereo not drawn) [Example 229, 4-(methyl((2-oxo-4-(o-tolyl)-2H-chromen-7-yl)methyl)carbamoyl)cyclohexane-1-carboxylic acid]"
2,200 nM,"Cc1ccccc1-c1cc(=O)oc2cc(N(C)[C@H](C)CC(=O)O)ccc12 [Example 230, (R)-3-(methyl(2-oxo-4-(o-tolyl)-2H-chromen-7-yl)amino)butanoic acid]"
3,5000 nM,"Cc1ccccc1-c1cc(=O)oc2cc(CC(=O)O)ccc12 [Example 233, 2-(2-oxo-4-(o-tolyl)-2H-chromen-7-yl) acetic acid]"
